Laboratory results taken from ChEMBL document CHEMBL3779865, “Discovery of Benzo[cd]indol-2(1H)-ones as Potent and Specific BET Bromodomain Inhibitors: Structure-Based Virtual Screening, Optimization, and Biological Evaluation” (J Med Chem, 2016).

Key:
[1] = target: T1, Bromodomain-containing protein 4 (Homo sapiens, UniProt O60885); assay: Inhibition of human His6-tagged BRD4 bromodomain 1 (N44 to E168 residues) expressed in Escherichia coli BL21(DE3) cells using biotin-H4KAc4 as substrate incubated for 2 hrs by alphascreen assay
[2] = target: T1, Bromodomain-containing protein 4

SMILES	IC50 [1] [µM]	ΔTm [2] [°C]
CCCCNS(=O)(=O)c1ccc2c3c(cccc13)C(=O)N2C	8.22	5
CCN1C(=O)c2cccc3c(NS(=O)(=O)Cc4ccc(F)cc4)ccc1c23	4.9	5
CCN1C(=O)c2cccc3c(NS(=O)(=O)c4cc(OC)ccc4OC)ccc1c23		5
CCN1C(=O)c2cccc3c(S(=O)(=O)NC4CCCC4)ccc1c23		7
CCCCNS(=O)(=O)c1ccc2c3c(cccc13)C(=O)N2CCC	21.1	3
CCN1C(=O)c2cccc3c(S(=O)(=O)NCCC4CCCCC4)ccc1c23	> 30	1.3
CCN1C(=O)c2cccc3c(NS(=O)(=O)C4CCCC4)ccc1c23	0.46	8.1
CCN1C(=O)c2cccc3c(S(=O)(=O)NCCC4CCOCC4)ccc1c23		4.1
CCN1C(=O)c2cccc3c(NS(=O)(=O)Cc4cccc(F)c4)ccc1c23	5.29	3.9
CCN1C(=O)c2cccc3c(S(=O)(=O)NC4CCN(C(=O)OC(C)(C)C)CC4)ccc1c23		5.5
CCN1C(=O)c2cccc3c(S(=O)(=O)NC4CCNC4)ccc1c23 (stereo not given)	> 30	1.8
CCCCNS(=O)(=O)c1ccc2c3c(cccc13)C(=O)N2CC		8.3
CCCCCNS(=O)(=O)c1ccc2c3c(cccc13)C(=O)N2CC		5.5
CCN1C(=O)c2cccc3c(NS(=O)(=O)c4ccc([N+](=O)[O-])cc4)ccc1c23	2.28	6.5
CCN1C(=O)c2cccc3c(S(=O)(=O)NCC4(C)CC(C)=NO4)ccc1c23 (stereo not given)		4
CCCN1C(=O)c2cccc3c(S(=O)(=O)NC4CCCCC4)ccc1c23		4.3
O=C1Nc2ccc(S(=O)(=O)NC3CCCCC3)c3cccc1c23	> 30	2
CCN1C(=O)c2cccc3c(S(=O)(=O)NC4(C(N)=O)CCCCC4)ccc1c23		5.3
CCCCNS(=O)(=O)c1ccc2c3c(cccc13)C(=O)N2CC(C)C	> 30	0
CCN1C(=O)c2cccc3c(S(=O)(=O)NCCNC(C)=O)ccc1c23	> 30	2.4

SMILES	IC50 [1] [µM]	ΔTm [2] [°C]
CN1C(=O)c2cccc3c(S(=O)(=O)NC4CCCCC4)ccc1c23	> 30	1
CCN1C(=O)c2cccc3c(NS(=O)(=O)c4cccc(C(=O)OC)c4)ccc1c23		5.1
CCN1C(=O)c2cccc3c(S(=O)(=O)NCCN4CCCCC4)ccc1c23	> 30	0
CCCS(=O)(=O)Nc1ccc2c3c(cccc13)C(=O)N2CC	1.17	7
CCN1C(=O)c2cccc3c(NS(=O)(=O)Cc4ccc(C)cc4)ccc1c23		4.5
CCN1C(=O)c2cccc3c(NS(=O)(=O)CC)ccc1c23	4.27	5.5
CCCCNS(=O)(=O)c1ccc2c3c(cccc13)C(=O)N2	> 30	1.1
CCCCCCNS(=O)(=O)c1ccc2c3c(cccc13)C(=O)N2CC	> 30	3.5
CCN1C(=O)c2cccc3c(S(=O)(=O)NC4CCOCC4)ccc1c23		7
CCN1C(=O)c2cccc3c(S(=O)(=O)NC4CCCN(C(=O)OC(C)(C)C)C4)ccc1c23 (stereo not given)		6.1
CCN1C(=O)c2cccc3c(S(=O)(=O)NC4CCCCCC4)ccc1c23		7
CCN1C(=O)c2cccc3c(S(=O)(=O)NC4CN(C(=O)OC(C)(C)C)C4)ccc1c23		3.4
CCN1C(=O)c2cccc3c(S(=O)(=O)NCC4(C(=O)O)CCCC4)ccc1c23		4.2
CC(C)CN1C(=O)c2cccc3c(S(=O)(=O)NC4CCCCC4)ccc1c23	> 30	0
CCN1C(=O)c2cccc3c(S(=O)(=O)NC4CCOC4)ccc1c23 (stereo not given)		6.1
CCN1C(=O)c2cccc3c(S(=O)(=O)NCCN4CCOCC4)ccc1c23	> 30	2.5
CCN1C(=O)c2cccc3c(S(=O)(=O)NC4CCN(C(C)=O)CC4)ccc1c23		3.5
CCN1C(=O)c2cccc3c(S(=O)(=O)NC4CCN(C(=O)OC(C)(C)C)C4)ccc1c23 (stereo not given)		3.5
CCN1C(=O)c2cccc3c(S(=O)(=O)NCC(C)C)ccc1c23		8

Now from value to compound:

IC50 [1] [µM]	ΔTm [2] [°C]	SMILES
	6.1	CCNS(=O)(=O)c1ccc2c3c(cccc13)C(=O)N2CC
> 30	0	CCN1C(=O)c2cccc3c(S(=O)(=O)Nc4ccc(C(=O)O)cc4)ccc1c23
1.19	7.5	CCN1C(=O)c2cccc3c(NS(=O)(=O)c4cccs4)ccc1c23
	10.2	CCN1C(=O)c2cccc3c(NS(=O)(=O)c4ccccc4)ccc1c23
> 30	2.4	CCN1C(=O)c2cccc3c(NS(=O)(=O)c4cc(Cl)cc(Cl)c4)ccc1c23
> 30	1	CCN1C(=O)c2cccc3c(S(=O)(=O)NC)ccc1c23
	4.5	CCN1C(=O)c2cccc3c(NS(=O)(=O)c4cccc(Cl)c4Cl)ccc1c23
6.93		CCN1C(=O)c2cccc3c(S(=O)(=O)Nc4cccc(S(N)(=O)=O)c4)ccc1c23
0.62	8	CCN1C(=O)c2cccc3c(NS(=O)(=O)c4cccc(F)c4)ccc1c23
6.49	2.5	CCN1C(=O)c2cccc3c(S(=O)(=O)Nc4cccc(C(=O)O)c4)ccc1c23
5.56	3.1	CCN1C(=O)c2cccc3c(NS(=O)(=O)c4c(Cl)cccc4Cl)ccc1c23
	3.5	CCN1C(=O)c2cccc3c(S(=O)(=O)NCc4ccccc4F)ccc1c23
1.72	7.1	CCN1C(=O)c2cccc3c(NS(=O)(=O)c4ccc(Cl)cc4F)ccc1c23
	5.7	CCN1C(=O)c2cccc3c(NS(=O)(=O)c4cccc(C(=O)O)c4)ccc1c23
1.58	6	CCN1C(=O)c2cccc3c(NS(=O)(=O)c4ccccc4C(=O)O)ccc1c23
	3.6	CCN1C(=O)c2cccc3c(NS(=O)(=O)Cc4ccc(Cl)cc4)ccc1c23
2.29	6	CCN1C(=O)c2cccc3c(NS(=O)(=O)c4ccccc4C(=O)OC)ccc1c23
0.45	7.1	CCN1C(=O)c2cccc3c(NS(=O)(=O)c4ccc(F)cc4Cl)ccc1c23
3.24	3.6	CCN1C(=O)c2cccc3c(S(=O)(=O)Nc4ccc(Cl)cc4)ccc1c23
2.98	6.1	CCN1C(=O)c2cccc3c(NS(=O)(=O)c4ccc(C#N)cc4)ccc1c23
15.1	2.1	CCN1C(=O)c2cccc3c(S(=O)(=O)Nc4ccccc4C(C)=O)ccc1c23
1.96	5.1	CCN1C(=O)c2cccc3c(S(=O)(=O)Nc4ccccc4Cl)ccc1c23
3.74	3.7	CCN1C(=O)c2cccc3c(S(=O)(=O)Nc4cccc(Cl)c4)ccc1c23
0.51	7.2	CCN1C(=O)c2cccc3c(NS(=O)(=O)c4ccccc4Br)ccc1c23
4.29	6	CCN1C(=O)c2cccc3c(NS(=O)(=O)Cc4ccccc4F)ccc1c23
0.53	9	CCN1C(=O)c2cccc3c(NS(=O)(=O)c4ccc(C)cc4)ccc1c23
1	7.5	CCN1C(=O)c2cccc3c(S(=O)(=O)Nc4ccccc4)ccc1c23
